The values below are quoted from earlier work in US11766438B2, “Pharmaceutical compositions of tofacitinib for oral administration” (Slayback Pharma LLC, priority 2020, dated 2023).

Structures are written as SMILES. Read-outs that look alike come from different tables or passages of the source.

As usually defined, the Solubility is the concentration that dissolves in the medium under given conditions.

As to `C[C@@H]1CCN(C(=O)CC#N)C[C@@H]1N(C)c1ncnc2[nH]ccc12.O=C(O)CC(O)(CC(=O)O)C(=O)O` [Tofacitinib citrate, (3R,4R)-4-methyl-3-(methyl-7H-pyrrolo[2,3-d]pyrimidin-4-ylamino)-β-oxo-1-piperidinepropanenitrile, 2-hydroxy-1,2,3-propanetricarboxylate (1:1)], the Solubility (aqueous solution of pH 1 to 3.9) was 3480 to 28000 µg/mL and the Solubility (aqueous solution of pH 4.53 to 8) is 200 to 590 µg/mL.
